Experimental data from PubChem BioAssay AID248 (DTP/NCI, 2004).
Toxic doses and inconclusive results are not listed. Cut-off read from the data, not from the text of the source: active = T/C of 150% or more; inactive = T/C below 125%.

Tested on: L1210 leukemia ip in BDF1 mice, survival T/C
Experiment: NCI In Vivo Anticancer Drug Screen. Data for tumor model L1210 Leukemia (intraperitoneal) in B6D2F1 (BDF1) mice
Conditions: endpoint: mean survival time, higher = longer survival
Summary of the method: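 Mice bearing the transplanted tumor received compound or vehicle. Survival of the treated group was divided by that of the vehicle-treated control group to give the ratio.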

[1] = dose: 100.0 mg/kg/injection, schedule: Q01DX005 (ip), vehicle: saline
[2] = dose: 100.0 mg/kg/injection, schedule: Q04DX002 (ip), vehicle: saline with Tween-80
[3] = dose: 50.0 mg/kg/injection, schedule: Q01DX009 (ip), vehicle: Klucel (hydroxypropylcellulose) (HPC)
[4] = dose: 100.0 mg/kg/injection, schedule: Q01DX009 (ip), vehicle: Klucel (hydroxypropylcellulose) (HPC)
[5] = dose: 200.0 mg/kg/injection, schedule: Q01DX009 (ip), vehicle: Klucel (hydroxypropylcellulose) (HPC)

Measured: T/C

NNC(=O)c1ccccn1
inactive: dose: 50.0 mg/kg/injection, schedule: Q01DX001 (ip), vehicle: water 98 % of control | dose: 75.0 mg/kg/injection, schedule: Q01DX001 (ip), vehicle: water 98 % of control | dose: 100.0 mg/kg/injection, schedule: Q01DX009 (ip), vehicle: water 97 % of control | dose: 150.0 mg/kg/injection, schedule: Q01DX001 (ip), vehicle: water 102 % of control

S=c1c2[nH]cnc2ncn1C1CCCC1
inactive: dose: 5.0 mg/kg/injection, schedule: Q01DX001 (ip), vehicle: other 100 % of control | dose: 10.0 mg/kg/injection, schedule: Q01DX001 (ip), vehicle: other 106 % of control | dose: 15.0 mg/kg/injection, schedule: Q01DX009 (ip), vehicle: saline with Tween-80 119 % of control | dose: 20.0 mg/kg/injection, schedule: Q01DX001 (ip), vehicle: other 103 % of control | dose: 33.5 mg/kg/injection, schedule: Q01DX009 (ip), vehicle: saline with Tween-80 104 % of control

COC(=O)C1OC1c1cc(Br)ccc1OC (stereo not given)
inactive: dose: 100.0 mg/kg/injection, schedule: Q01DX001 (ip), vehicle: saline 102 % of control | dose: 200.0 mg/kg/injection, schedule: Q01DX001 (ip), vehicle: saline 103 % of control | dose: 400.0 mg/kg/injection, schedule: Q01DX001 (ip), vehicle: saline 102 % of control

NC1CCCCC1
inactive: dose: 100.0 mg/kg/injection, schedule: Q04DX003 (ip), vehicle: saline 109 % of control | dose: 200.0 mg/kg/injection, schedule: Q04DX003 (ip), vehicle: saline 102 % of control | dose: 400.0 mg/kg/injection, schedule: Q04DX003 (ip), vehicle: saline 100 % of control

CCCCN(CCCC)CC(O)c1ccccc1 (stereo not given)
inactive: dose: 25.0 mg/kg/injection, schedule: Q01DX005 (ip), vehicle: saline 112 % of control | dose: 25.0 mg/kg/injection, schedule: Q01DX009 (ip), vehicle: saline 95 % of control | dose: 25.0 mg/kg/injection, schedule: Q04DX002 (ip), vehicle: saline with Tween-80 102 % of control | dose: 50.0 mg/kg/injection, schedule: Q01DX005 (ip), vehicle: saline 108 % of control | dose: 50.0 mg/kg/injection, schedule: Q01DX009 (ip), vehicle: saline 107 % of control | dose: 50.0 mg/kg/injection, schedule: Q04DX002 (ip), vehicle: saline with Tween-80 106 % of control | [1] 101 % of control | [2] 93 % of control

O=c1[nH]c(NC2OC(CO)C(O)C2O)nc2c1ncn2C1(CO)CC(O)(CO)O1 (stereo not given)
inactive: [1] 93 % of control | dose: 200.0 mg/kg/injection, schedule: Q01DX005 (ip), vehicle: saline 98 % of control

O=C(Nc1ccccc1F)Nc1cccc2ccc(O)cc12
inactive: dose: 100.0 mg/kg/injection, schedule: Q01DX009 (ip), vehicle: alcohol 95 % of control | dose: 200.0 mg/kg/injection, schedule: Q01DX009 (ip), vehicle: alcohol 98 % of control | dose: 400.0 mg/kg/injection, schedule: Q01DX009 (ip), vehicle: alcohol 93 % of control

CCC(=O)c1ccccc1N
inactive: dose: 100.0 mg/kg/injection, schedule: Q01DX009 (ip), vehicle: saline with Tween-80 97 % of control | dose: 200.0 mg/kg/injection, schedule: Q01DX009 (ip), vehicle: saline with Tween-80 105 % of control | dose: 400.0 mg/kg/injection, schedule: Q01DX009 (ip), vehicle: saline with Tween-80 92 % of control

CCC1(O)CC(OC2CC(N(C)C)C(OC3CC(O)C(O)C(C)O3)C(C)O2)c2c(cc3c(c2O)C(=O)c2c(O)ccc(O)c2C3=O)C1C(=O)OC (stereo not given)
inactive: dose: 1.6 mg/kg/injection, schedule: Q01DX001 (ip), vehicle: saline 108 % of control | dose: 3.2 mg/kg/injection, schedule: Q01DX001 (ip), vehicle: saline 104 % of control | dose: 6.4 mg/kg/injection, schedule: Q01DX001 (ip), vehicle: saline 105 % of control

O=Cc1ccc(N2CCOCC2)cc1
inactive: [3] 97 % of control | [4] 97 % of control | [5] 106 % of control | dose: 400.0 mg/kg/injection, schedule: Q01DX009 (ip), vehicle: Klucel (hydroxypropylcellulose) (HPC) 97 % of control

CC(NC(=O)CCN)C(=O)O (stereo not given)
inactive: dose: 25.0 mg/kg/injection, schedule: Q04DX002 (ip), vehicle: saline 96 % of control | dose: 50.0 mg/kg/injection, schedule: Q04DX002 (ip), vehicle: saline 89 % of control | dose: 100.0 mg/kg/injection, schedule: Q04DX002 (ip), vehicle: saline 102 % of control

CCCCN(C#N)CC(C)(C)[N+](=O)[O-]
inactive: dose: 111.0 mg/kg/injection, schedule: Q01DX Z (ip), vehicle: methylcellulose (MC) 103 % of control | dose: 166.0 mg/kg/injection, schedule: Q01DX Z (ip), vehicle: methylcellulose (MC) 97 % of control | dose: 250.0 mg/kg/injection, schedule: Q01DX Z (ip), vehicle: methylcellulose (MC) 108 % of control

CCSCCC(=O)O
inactive: dose: 50.0 mg/kg/injection, schedule: Q01DX001 (ip), vehicle: Klucel (hydroxypropylcellulose) (HPC) 97 % of control | dose: 100.0 mg/kg/injection, schedule: Q01DX001 (ip), vehicle: Klucel (hydroxypropylcellulose) (HPC) 92 % of control | dose: 200.0 mg/kg/injection, schedule: Q01DX001 (ip), vehicle: Klucel (hydroxypropylcellulose) (HPC) 97 % of control

O=C(COc1ccccc1)Oc1c(Cl)cc(Cl)cc1Cl
inactive: dose: 100.0 mg/kg/injection, schedule: Q04DX003 (ip), vehicle: Klucel (hydroxypropylcellulose) (HPC) 98 % of control | dose: 200.0 mg/kg/injection, schedule: Q04DX003 (ip), vehicle: Klucel (hydroxypropylcellulose) (HPC) 100 % of control | dose: 400.0 mg/kg/injection, schedule: Q04DX003 (ip), vehicle: Klucel (hydroxypropylcellulose) (HPC) 100 % of control

NC(=O)NCN1C(=O)c2ccccc2C1=O
inactive: dose: 100.0 mg/kg/injection, schedule: Q04DX002 (ip), vehicle: Klucel (hydroxypropylcellulose) (HPC) 100 % of control | dose: 200.0 mg/kg/injection, schedule: Q04DX002 (ip), vehicle: Klucel (hydroxypropylcellulose) (HPC) 94 % of control | dose: 400.0 mg/kg/injection, schedule: Q04DX002 (ip), vehicle: Klucel (hydroxypropylcellulose) (HPC) 90 % of control

NC(=O)NCO
inactive: [2] 94 % of control | dose: 200.0 mg/kg/injection, schedule: Q04DX002 (ip), vehicle: saline with Tween-80 94 % of control | dose: 400.0 mg/kg/injection, schedule: Q04DX002 (ip), vehicle: saline with Tween-80 90 % of control

CC/C=C(/C)CCC
inactive: dose: 100.0 mg/kg/injection, schedule: Q04DX003 (ip), vehicle: saline with Tween-80 93 % of control | dose: 200.0 mg/kg/injection, schedule: Q04DX003 (ip), vehicle: saline with Tween-80 93 % of control | dose: 400.0 mg/kg/injection, schedule: Q04DX003 (ip), vehicle: saline with Tween-80 98 % of control

CN(C)/C=N/NC(=O)C(O)(c1ccccc1)c1ccccc1
inactive: dose: 75.0 mg/kg/injection, schedule: Q01DX009 (ip), vehicle: Klucel (hydroxypropylcellulose) (HPC) 105 % of control | dose: 150.0 mg/kg/injection, schedule: Q01DX009 (ip), vehicle: Klucel (hydroxypropylcellulose) (HPC) 100 % of control | dose: 300.0 mg/kg/injection, schedule: Q01DX009 (ip), vehicle: Klucel (hydroxypropylcellulose) (HPC) 95 % of control

Nc1nc(N)c2nc(CNc3ccc(Cl)cc3)cnc2n1
inactive: dose: 20.0 mg/kg/injection, schedule: Q01DX009 (ip), vehicle: Klucel (hydroxypropylcellulose) (HPC) 96 % of control | dose: 40.0 mg/kg/injection, schedule: Q01DX009 (ip), vehicle: Klucel (hydroxypropylcellulose) (HPC) 96 % of control | dose: 80.0 mg/kg/injection, schedule: Q01DX009 (ip), vehicle: Klucel (hydroxypropylcellulose) (HPC) 104 % of control

Cc1ccc(OC/C=C/CS(=O)(=O)c2ccc(Cl)cc2)cc1
inactive: [3] 98 % of control | dose: 75.0 mg/kg/injection, schedule: Q01DX001 (ip), vehicle: Klucel (hydroxypropylcellulose) (HPC) 96 % of control | [4] 95 % of control | dose: 150.0 mg/kg/injection, schedule: Q01DX001 (ip), vehicle: Klucel (hydroxypropylcellulose) (HPC) 96 % of control | [5] 98 % of control | dose: 300.0 mg/kg/injection, schedule: Q01DX001 (ip), vehicle: Klucel (hydroxypropylcellulose) (HPC) 94 % of control

CN(C)CCOC(=O)c1cccc(CCl)c1CCl
inactive: dose: 87.5 mg/kg/injection, schedule: Q01DX009 (ip), vehicle: saline 106 % of control

CC1CN=C(c2ccc(NC(=O)NCCCCCCCCCCNC(=O)Nc3ccc(C4=NCC(C)N4)cc3)cc2)N1 (stereo not given)
inactive: dose: 5.0 mg/kg/injection, schedule: Q01DX015 (ip), vehicle: water 96 % of control | dose: 10.0 mg/kg/injection, schedule: Q01DX015 (ip), vehicle: water 102 % of control | dose: 20.0 mg/kg/injection, schedule: Q01DX015 (ip), vehicle: water 103 % of control
